Like-named read-outs stand apart in the source and are kept apart here.
Assays:
[1] = system: secreted cytokines TNFα, IL-6 and KC-GRO; assay: Secreted cytokines in Lipopolysaccharide-stimulated BV-2 cells (Table 9 does not say which cytokine); format: cell-based, mouse; details: read-out: EC50
DYRK1A kinase = DYRK1A kinase (Homo sapiens, UniProt Q13627); assay: DYRK1A kinase activity (Ser/Thr 18 peptide Z-lyte FRET assay); format: biochemical; details: recombinant DYRK1A, 30 μM ATP, one hour at room temperature;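 further: kinase activity read as coumarin/fluorescein emission ratio after development step, with unphosphorylated and phosphorylated peptide forms setting 0% and 100% controls, values from dose-response curves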
[2] = system: Wnt-responsive Sp5-Luc reporter in SW480 colon carcinoma cells; assay: Screening assay for Wnt activity (Sp5-Luc reporter gene assay); details: for inhibition at 10 µM: SW480, read-out: percent inhibition at 10 μM
Experimental: The screening assay for Wnt activity is described as follows.
SW480 colon carcinoma cells were transduced with a lentiviral vector expressing luciferase with a human Sp5 promoter consisting of a sequence of eight TCF/LEF binding sites. […] These stably transduced SW480 cells were expanded in cell culture and used for all further screening activities. Each compound was dissolved in DMSO as a 10 mM stock and used to prepare compound source plates. Serial dilution (1:3, 10-point dose-response curves starting from 10 μM) and compound transfer was performed using the ECHO 550 (Labcyte, Sunnyvale, Calif.) into 384-well white solid bottom assay plates (Greiner Bio-One) with appropriate DMSO backfill for a final DMSO concentration of 0.1%. […] Following incubation, 15 μl of BriteLite Plus luminescence reagent (Perkin Elmer) was added to each well of the 384-well assay plates. The plates were placed on an orbital shaker for 2 min and then luminescence was quantified using the Envision (Perkin Elmer) plate reader.

IL-6 = IL-6 inhibition in LPS-stimulated human peripheral blood mononuclear cells (HTRF); details: Homo sapiens, PBMC; for EC50: 22 h; for inhibition at 10 µM: read-out: percentage in parentheses after EC50 >10
GSK3β kinase = GSK3β kinase (Homo sapiens, UniProt P49841); assay: GSK3β kinase activity (Ser/Thr 09 peptide Z-lyte FRET assay); format: biochemical; details: recombinant kinase, 46 μM ATP, one hour at room temperature; read-out: EC50
[3] = system: α-smooth muscle actin (aSMA) positive LL29 cells; assay: Inhibition of the fibrotic process: αSMA staining in TGF-β1 treated LL29 fibroblasts from IPF patients; details: for inhibition at 10 µM: read-out: percentage in parentheses after EC50 >10
[4] = system: SW480 colon carcinoma cells; assay: Cell viability assay (CellTiter-Glo); details: for inhibition at 10 µM: SW480, read-out: percent inhibition at 10 μM

Sequence of GSK3β kinase (P49841 whole entry): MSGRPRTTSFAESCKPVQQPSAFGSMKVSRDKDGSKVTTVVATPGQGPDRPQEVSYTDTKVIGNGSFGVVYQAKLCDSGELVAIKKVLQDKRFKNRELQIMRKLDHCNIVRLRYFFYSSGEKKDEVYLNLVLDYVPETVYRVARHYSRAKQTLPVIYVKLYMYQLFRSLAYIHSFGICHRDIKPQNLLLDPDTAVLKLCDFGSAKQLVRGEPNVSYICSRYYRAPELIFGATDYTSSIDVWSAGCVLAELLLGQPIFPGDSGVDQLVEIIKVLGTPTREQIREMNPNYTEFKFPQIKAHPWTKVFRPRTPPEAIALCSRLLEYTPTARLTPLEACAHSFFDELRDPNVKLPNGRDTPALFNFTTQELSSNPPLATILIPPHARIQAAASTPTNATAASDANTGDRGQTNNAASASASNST

Compound | EC50 ([1]; Mus musculus, BV-2, 5 h) [nM] | EC50 (DYRK1A kinase) [nM] | EC50 ([2]; Homo sapiens, SW480) [nM] | EC50 (IL-6) [µM] | EC50 (GSK3β kinase) [nM] | EC50 ([4]; Homo sapiens, SW480, 96 h) [nM] | EC50 ([1]; BV-2 cells, LPS 250 ng/mL 5 hours, compounds overnight, 10 μM to […], cytokine not named in Table 9) [nM] | EC50 ([2]; SW480 Sp5-Luc reporter cells, 36 to 48 hours) [nM] | EC50 ([4]; SW480 cells, four days, CellTiter-Glo) [nM] | EC50 ([3]; Homo sapiens, Fibroblast, 96 h) [nM] | inhibition at 10 µM (IL-6) [%] | inhibition at 10 µM ([2]; Homo sapiens) [%] | inhibition at 10 µM ([4]; Homo sapiens) [%] | inhibition at 10 µM ([3]; Homo sapiens, Fibroblast) [%] | percent inhibition at 10 μM ([2]; at 10 μM, given for EC50 of >10 μM, SW480 Sp5-Luc reporter) [%] | EC50 ([3]; LL29 fibroblasts from IPF patients, TGF-β1 20 ng/mL, 4 days, curves from 10 μM to 0.94 nM) [nM] | percentage in parentheses after EC50 >10 ([3]; LL29 fibroblasts, TGF-β1, given beside >10 μM, meaning not given) [%] | percent inhibition at 10 μM ([4]; at 10 μM, given for EC50 of >10 μM, SW480 cell viability) [%]
CN1CCC(Oc2ccc(C(=O)Nc3cc4nc(-c5cnn(C)c5)ccc4cn3)cc2)CC1 [Compound 145, N-(2-(1-methyl-1H-pyrazol-4-yl)-1,6-naphthyridin-7-yl)-4-((1-methylpiperidin-4-yl)oxy)benzamide] | 212 | 5 | 259 | 3.25 | 2000 | 535 |  |  |  | 369 |  |  |  |  |  |  |  | 
CN1CCN(c2cc(C(=O)Nc3cc4nc(-c5cnn(C)c5)ccc4cn3)ccn2)CC1 [Compound 147, N-(2-(1-Methyl-1H-pyrazol-4-yl)-1,6-naphthyridin-7-yl)-2-(4-methylpiperazin-1-yl)isonicotinamide] | 122 | 7 | 102 | 2.2 | > 10000 | 311 |  |  |  | 410 |  |  |  |  |  |  |  | 
CN1CCN(c2ccc(C(=O)Nc3cc4nc(-c5cnn(C)c5)ccc4cn3)cn2)CC1 [Compound 151, N-(2-(1-Methyl-1H-pyrazol-4-yl)-1,6-naphthyridin-7-yl)-6-(4-methylpiperazin-1-yl)nicotinamide] | 88 | 2 | 498 | 3.68 | 571 | 3680 |  |  |  | 432 |  |  |  |  |  |  |  | 
Cn1cc(-c2ccc3cnc(NC(=O)c4ccnc(OC5CCNCC5)c4)cc3n2)cn1 [Compound 153, N-(2-(1-Methyl-1H-pyrazol-4-yl)-1,6-naphthyridin-7-yl)-2-(piperidin-4-yloxy)isonicotinamide] | 159 | 4 | 111 | 2.07 | 6000 | 353 |  |  |  | 1100 |  |  |  |  |  |  |  | 
CN(C)CCNc1cc(C(=O)Nc2cc3nc(-c4cnn(C)c4)ccc3cn2)ccn1 [Compound 164, 2-((2-(Dimethylamino)ethyl)amino)-N-(2-(1-methyl-1H-pyrazol-4-yl)-1,6-naphthyridin-7-yl)isonicotinamide] | 165 | 6 | 585 | > 10 | 4010 | 2770 |  |  |  | 717 | 17.6 |  |  |  |  |  |  | 
CN(C)Cc1ccc(C(=O)Nc2cc3nc(-c4cnn(C)c4)ccc3cn2)cc1 [Compound 170, 4-((Dimethylamino)methyl)-N-(2-(1-methyl-1H-pyrazol-4-yl)-1,6-naphthyridin-7-yl)benzamide] | 55 | 6 | 396 | 8.09 | 1870 | 3370 |  |  |  | 1300 |  |  |  |  |  |  |  | 
CN1CCN(Cc2cccc(C(=O)Nc3cc4nc(-c5cnn(C)c5)ccc4cn3)c2)CC1 [Compound 172, N-(2-(1-Methyl-1H-pyrazol-4-yl)-1,6-naphthyridin-7-yl)-3-((4-methylpiperazin-1-yl)methyl)benzamide] | 214 | 13 | 445 | > 10 | 765 | 1010 |  |  |  | 393 | 32.7 |  |  |  |  |  |  | 
CN1CCc2ccc(C(=O)Nc3cc4nc(-c5cnn(C)c5)ccc4cn3)cc2C1 [Compound 202, 2-Methyl-N-(2-(1-methyl-1H-pyrazol-4-yl)-1,6-naphthyridin-7-yl)-1,2,3,4-tetrahydroisoquinoline-7-carboxamide] | 300 | 9 | 686 | > 10 | > 10000 | 9310 |  |  |  | 530 | 5.1 |  |  |  |  |  |  | 

Continued, in another order:

EC50 ([1]; Mus musculus, BV-2, 5 h) [nM] | EC50 (DYRK1A kinase) [nM] | EC50 ([2]; Homo sapiens, SW480) [nM] | EC50 (IL-6) [µM] | EC50 (GSK3β kinase) [nM] | EC50 ([4]; Homo sapiens, SW480, 96 h) [nM] | EC50 ([1]; BV-2 cells, LPS 250 ng/mL 5 hours, compounds overnight, 10 μM to […], cytokine not named in Table 9) [nM] | EC50 ([2]; SW480 Sp5-Luc reporter cells, 36 to 48 hours) [nM] | EC50 ([4]; SW480 cells, four days, CellTiter-Glo) [nM] | Compound | EC50 ([3]; Homo sapiens, Fibroblast, 96 h) [nM] | inhibition at 10 µM (IL-6) [%] | inhibition at 10 µM ([2]; Homo sapiens) [%] | inhibition at 10 µM ([4]; Homo sapiens) [%] | inhibition at 10 µM ([3]; Homo sapiens, Fibroblast) [%] | percent inhibition at 10 μM ([2]; at 10 μM, given for EC50 of >10 μM, SW480 Sp5-Luc reporter) [%] | EC50 ([3]; LL29 fibroblasts from IPF patients, TGF-β1 20 ng/mL, 4 days, curves from 10 μM to 0.94 nM) [nM] | percentage in parentheses after EC50 >10 ([3]; LL29 fibroblasts, TGF-β1, given beside >10 μM, meaning not given) [%] | percent inhibition at 10 μM ([4]; at 10 μM, given for EC50 of >10 μM, SW480 cell viability) [%]
864 | 5 | 485 | > 10 | > 10000 | 3150 |  |  |  | Cn1cc(-c2ccc3cnc(NC(=O)c4ccc5ccoc5c4)cc3n2)cn1 [Compound 209, N-(2-(1-Methyl-1H-pyrazol-4-yl)-1,6-naphthyridin-7-yl)benzofuran-6-carboxamide] | 436 | 3.1 |  |  |  |  |  |  | 
378 | 7 | 447 | > 10 | 4850 | 3160 |  |  |  | Cn1cc(-c2ccc3cnc(NC(=O)c4ccc5nccnc5c4)cc3n2)cn1 [Compound 216, N-(2-(1-Methyl-1H-pyrazol-4-yl)-1,6-naphthyridin-7-yl)quinoxaline-6-carboxamide] | 598 | 0 |  |  |  |  |  |  | 
207 | 6 | 76 | 0.723 | 753 | 105 |  |  |  | Cn1cc(-c2ccc3cnc(NC(=O)c4cnn(C5CCNCC5)c4)cc3n2)cn1 [Compound 228, N-(2-(1-Methyl-1H-pyrazol-4-yl)-1,6-naphthyridin-7-yl)-1-(piperidin-4-yl)-1H-pyrazole-4-carboxamide] | 376 |  |  |  |  |  |  |  | 
62 | 11 | 90 | 0.859 | 2900 | 122 |  |  |  | CN1CCC(n2cc(C(=O)Nc3cc4nc(-c5cnn(C)c5)ccc4cn3)cn2)CC1 [Compound 229, N-(2-(1-Methyl-1H-pyrazol-4-yl)-1,6-naphthyridin-7-yl)-1-(1-methylpiperidin-4-yl)-1H-pyrazole-4-carboxamide] | 318 |  |  |  |  |  |  |  | 
26 | 4 | 124 | 1.89 | 2250 | 229 |  |  |  | CC(C)OC(=O)N1CCC(n2cc(C(=O)Nc3cc4nc(-c5cnn(C)c5)ccc4cn3)cn2)CC1 [Compound 234, Isopropyl 4-(4-((2-(1-methyl-1H-pyrazol-4-yl)-1,6-naphthyridin-7-yl)carbamoyl)-1H-pyrazol-1-yl)piperidine-1-carboxylate] | 329 |  |  |  |  |  |  |  | 
138 | 8 | 368 | > 10 | 2610 | 441 |  |  |  | Cn1ncc(-c2ccc3cnc(NC(=O)c4ccnc(N5CCOCC5)c4)cc3n2)c1CN1CCOCC1 [Compound 314, N-(2-(1-Methyl-5-(morpholinomethyl)-1H-pyrazol-4-yl)-1,6-naphthyridin-7-yl)-2-morpholinoisonicotinamide] | 989 | 47.6 |  |  |  |  |  |  | 
2400 | 10 | > 10000 | > 10 | 2270 | > 10000 |  |  |  | O=C(Nc1cc2cc(-c3cncc(NCC4(F)CNC4)n3)cnc2cn1)C1CC1 [Compound 3591, N-(3-(6-(((3-Fluoroazetidin-3-yl)methyl)amino)pyrazin-2-yl)-1,7-naphthyridin-6-yl)cyclopropanecarboxamide] |  | 4.4 | 1.3 | 6.1 |  |  |  |  | 
 | 175 | > 10000 | > 10 | > 10000 | > 10000 |  |  |  | CC(C)Oc1ccc(C(=O)Nc2ncc3ccc(-c4cnc5n4CCN(C)C5)cc3n2)cc1 [Compound 4577, 4-Isopropoxy-N-(7-(7-methyl-5,6,7,8-tetrahydroimidazo[1,2-a]pyrazin-3-yl)quinazolin-2-yl)benzamide] | > 10000 | 2.6 | 28.9 | 19.7 | 42.7 |  |  |  | 
 | 35 | > 10000 | > 10 | 528 | > 10000 |  |  |  | N#CC(c1cncc(-c2ccc3cnc(NC(=O)C4CC4)nc3c2)c1)N1CCC(O)CC1 (stereo not shown) [Compound 4594, N-(7-(5-(Cyano(4-hydroxypiperidin-1-yl)methyl)pyridin-3-yl)quinazolin-2-yl)cyclopropanecarboxamide] | 3250 | 2.4 | 35.6 | 15 |  |  |  |  | 
 | 38 | > 10000 | > 10 | > 10000 | 4570 |  |  |  | CN1CC(COc2cncc(-c3ccc4cnc(NC(=O)c5ccc(F)cc5)nc4c3)n2)C1 [Compound 4595, 4-Fluoro-N-(7-(6-((1-methylazetidin-3-yl)methoxy)pyrazin-2-yl)quinazolin-2-yl)benzamide] | > 10000 | 5.3 | 20.1 |  | 2.8 |  |  |  | 
 |  |  |  |  |  | 2900 | > 10000 | > 10000 | CN1CCN(c2ncc(C(=O)Nc3cc4cc(-c5cnn(C)c5)ncc4cn3)s2)CC1 [Compound 4602, N-(6-(1-Methyl-1H-pyrazol-4-yl)-2,7-naphthyridin-3-yl)-2-(4-methylpiperazin-1-yl)thiazole-5-carboxamide] |  |  |  |  |  | 10.9 | > 10000 | 14.3 | 26.1

Reference: patent publication US10703748B2, “Diazanaphthalen-3-yl carboxamides and preparation and use thereof” (Samumed, LLC, priority 2017, dated 2020)
